According to patent US20240300905A1, “Quinazoline Compounds and Uses” (Prosetta Biosciences, Inc., priority 2023, published 2024):

Each compound was assayed on Hennes-20 cells (assay: Hennes-20 oncology screen (low vs high plating density, alamar Blue)). Settings: 72 h.
Format: cell-based
Description: All compounds mentioned as active were tested in Hennes. Select hits from the Hennes screen were sent for additional anti-cancer testing.
To screen compounds for oncology activity Hennes-20 cells were plated at low (500 cells/well) versus high (15,000 cells/well) densities and treated with DMSO (vehicle) or dose-titration of compounds. The rationale for this screen is that an intrinsically toxic compound should kill cells regardless of density, including in Hennes-20 cells. However, a compound that selectively triggers the arrest of proliferation will inhibit cell growth when plated at a low density will appear cytotoxic due to inhibition of cell growth when plated at a low density but will appear non-toxic to cells plated at a high density where the cells are approaching confluence and the readout detected by a cell viability assay is already close to the maximum.
To conduct the Hennes-20 screen, two 96 well plates were seeded with Hennes 20 cells in parallel where one was plated at a density of 500 cells/well and the other was plated at a density of 15,000 cells/well. 90 uL of minimum essential media was added to each well and plates were placed in a 37 degrees Celsius incubator for 24 hours. The next day, 10 ul of media containing dilutions of compound in DMSO were added to each plate. Six wells on each plate received 10 ul of media containing only DMSO. Each well was gently mixed 5 times with a 100 ul pipette. Plates were incubated at 37 degrees Celsius for 72 hours then 10 uL of alamar Blue was added to each well. Wells were mixed 5 times then incubated at 37 degrees Celsius for […]. Plates were then read at 530/590.
The rationale for the screen is as follows: Hennes-20 cells lack endogenous apoptosis. Cells plated at low density will proliferate and approach confluence in 72 hrs. A drug that arrests proliferation may have its proliferation blocking effect masked by the triggering of endogenous apoptosis. However, in the Hennes line, lacking endogenous apoptosis, such an arrest is manifest as a dose-dependent maintenance at low cell density. Since the high-density cells are plated close to confluence, the difference between Alamar Blue cell survival readings after 72 hrs reflects the ability of the drug to block proliferation in the low density-plated cells. In the high density-plated cells any diminution of Alamar Blue readout vs vehicle control is due to intrinsic toxicity, not proliferation arrest, since cells were already at confluence. Thus, a compound that appears toxic (low Alamar Blue readings after 72 hrs) on the low-density plate, but which appears non-toxic (high Alamar Blue readings after 72 hrs) on the high-density plate, must be arresting proliferation, since intrinsic compound toxicity should be observed at both low and high cell densities, not selectively on the low-density plate.
With `CCCCNc1ncnc2cc(N3CCN(c4cc(NCCC(C)C)c5cncnc5c4)C(C)C3)ccc12` (centres unmarked) [Compound 67] the EC50 was 500 nM.

Same assay, conditions: 72 h, Hennes-20 cells, 72 hours compound incubation, alamar Blue; read-out: EC50
`CC(C)CCNc1ncnc2cc(N3CCN(c4ccc5c(NCC(C)C)ncnc5c4)CC3)ccc12` [Compound 8] was tested, and the EC50 was < 500 nM. In the case of `CCCCNc1ncnc2cc(N3CCN(c4ccc5c(NCCC(C)C)ncnc5c4)CC3)ccc12` [Compound 22], the EC50 is reported as < 500 nM. In the case of `CC(C)CCNc1ncnc2cc(N3CCN(c4ccc5c(NCC(C)(C)C)ncnc5c4)CC3)ccc12` [Compound 24], the EC50 is reported as < 500 nM. `CC(C)CCNc1ncnc2cc(N3CCN(c4ccc5c(NC(C)C)ncnc5c4)CC3)ccc12` [Compound 29] was tested, and the EC50 was < 500 nM. For `CC(C)CCNc1ncnc2cc(N3CCN(c4ccc5c(NCCCN(C)C)ncnc5c4)CC3)ccc12` [Compound 31], the EC50 was < 12500 nM. Work on `CCCCNc1ncnc2cc(N3CCN(c4ccc5c(NCCC(C)C)ncnc5c4)CC3C)ccc12` (centres unmarked) [Compound 51] yielded an EC50 of 500 nM. `CCCCNc1ncnc2cc(N3CCN(c4ccc5c(NCCC(C)C)ncnc5c4)C(C)C3C)ccc12` (centres unmarked) [Compound 52] was tested, and the EC50 was 2500 nM. Compound `CCCCNc1ncnc2cc(N3CCN(c4ccc5c(NCCCC)ncnc5c4)C(C)C3)ccc12` (centres unmarked) [Compound 53] has an EC50 of 500 nM. In the case of `CC(C)CCNc1ncnc2cc(N3CC(C)N(c4ccc5c(NCCC(C)C)ncnc5c4)CC3C)ccc12` (centres unmarked) [Compound 54], the EC50 is reported as 2500 nM. Compound `CC(C)CCNc1ncnc2cc(N3CCN(c4ccc5c(NCCC(C)C)ncnc5c4)C(C)C3C)ccc12` (centres unmarked) [Compound 55] has an EC50 of 500 nM. `CCCCNc1ncnc2cc(N3CCN(c4ccc5c(NCCc6ccccc6)ncnc5c4)CC3)ccc12` [Compound 56] was tested, and the EC50 was 12500 nM. In the case of `CCCCNc1ncnc2cc(N3CCN(c4ccc5c(NCCC6CCNCC6)ncnc5c4)CC3)ccc12` [Compound 57], the EC50 is reported as > 12500 nM. `CC(C)(C)CNc1ncnc2cc(N3CCN(c4ccc5c(NCCc6ccccc6)ncnc5c4)CC3)ccc12` [Compound 58] was tested, and the EC50 was 12500 nM. `CC(C)(C)CNc1ncnc2cc(N3CCN(c4ccc5c(NCCC6CCNCC6)ncnc5c4)CC3)ccc12` [Compound 59] was tested, and the EC50 was > 12500 nM. `CC(C)CCN(C)c1ncnc2cc(N3CCN(c4ccc5c(NCCc6ccccc6)ncnc5c4)CC3)ccc12` [Compound 60] was tested, and the EC50 was 2500 nM. `CC(C)CCN(C)c1ncnc2cc(N3CCN(c4ccc5c(NCCc6ccncc6)ncnc5c4)CC3)ccc12` [Compound 61] gave an EC50 of 2500 nM. `CC(C)CCN(C)c1ncnc2cc(N3CCN(c4ccc5c(NCCC6CCNCC6)ncnc5c4)CC3)ccc12` [Compound 62] was tested, and the EC50 was > 12500 nM. `CC(C)CNc1ncnc2cc(N3CCN(c4ccc5c(NCCC6CCNCC6)ncnc5c4)CC3)ccc12` [Compound 63] was tested, and the EC50 was > 12500 nM. `CC(C)CNc1ncnc2cc(N3CCN(c4ccc5c(NCCc6ccccc6)ncnc5c4)CC3)ccc12` [Compound 64] showed an EC50 of 2500 nM. `CC(C)CNc1ncnc2cc(N3CCN(c4ccc5c(NCCc6ccncc6)ncnc5c4)CC3)ccc12` [Compound 65] showed an EC50 of 2500 nM. Work on `CC(C)CCNc1cc(N2CCN(c3ccc4c(NCC(C)(C)C)ncnc4c3)CC2C)cc2ncncc12` (centres unmarked) [Compound 66] yielded an EC50 of 2500 nM. `CC(C)(C)CNc1ncnc2cc(N3CCN(c4ccc5c(NCCc6ccccn6)ncnc5c4)CC3)ccc12` [Compound 68] was tested, and the EC50 was 500 nM. Work on `CCCCNc1ncnc2cc(N3CCN(c4ccc5c(NCCc6ccccn6)ncnc5c4)CC3)ccc12` [Compound 69] yielded an EC50 of 500 nM. `CCCCNc1ncnc2cc(N3CCN(c4ccc5c(N6CCC(C)(C)CC6)ncnc5c4)CC3)ccc12` [Compound 70] gave an EC50 of 500 nM. With `CCCCNc1ncnc2cc(N3CCN(c4ccc5c(NCCN6CCN(C)CC6)ncnc5c4)CC3)ccc12` [Compound 71] the EC50 was > 2500 nM. `CCCCNc1ncnc2cc(N3CCN(c4ccc5c(NCCc6cccnc6)ncnc5c4)CC3)ccc12` [Compound 72] showed an EC50 of 2500 nM. In the case of `CCCCNc1ncnc2cc(N3CCN(c4ccc5c(NCCc6ccncc6)ncnc5c4)CC3)ccc12` [Compound 73], the EC50 is reported as 2500 nM. `CC(C)(C)CNc1ncnc2cc(N3CCN(c4ccc5c(N6CCC(C)(C)CC6)ncnc5c4)CC3)ccc12` [Compound 74] gave an EC50 of 500 nM. `CN1CCN(CCNc2ncnc3cc(N4CCN(c5ccc6c(NCC(C)(C)C)ncnc6c5)CC4)ccc23)CC1` [Compound 75] was tested, and the EC50 was > 2500 nM. `CC(C)(C)CNc1ncnc2cc(N3CCN(c4ccc5c(NCCc6cccnc6)ncnc5c4)CC3)ccc12` [Compound 76] showed an EC50 of 2500 nM. With `CC(C)(C)CNc1ncnc2cc(N3CCN(c4ccc5c(NCCc6ccncc6)ncnc5c4)CC3)ccc12` [Compound 77] the EC50 was < 12500 nM. Compound `CC(C)CCNc1ncnc2cc(N3CCN(c4ccc5c(NCCC6CCCC6)ncnc5c4)CC3)ccc12` [Compound 80] has an EC50 of 500 nM. `CC(C)CCNc1ncnc2cc(N3CCN(c4ccc5c(NCCc6nccs6)ncnc5c4)CC3)ccc12` [Compound 81] gave an EC50 of 500 nM. In the case of `CC(C)CCNc1ncnc2cc(N3CCN(c4ccc5c(NCCN6CCN(C)CC6)ncnc5c4)CC3)ccc12` [Compound 82], the EC50 is reported as < 12500 nM. `CC(C)CCNc1ncnc2cc(N3CCN(c4ccc5c(NCCc6cccnc6)ncnc5c4)CC3)ccc12` [Compound 83] was tested, and the EC50 was < 2500 nM. `CC(C)CCNc1ncnc2cc(N3CCN(c4ccc5c(NCCc6ccccn6)ncnc5c4)CC3)ccc12` [Compound 84] showed an EC50 of 500 nM. For `CC(C)CCNc1ncnc2cc(N3CCN(c4ccc5c(NCCc6ccncc6)ncnc5c4)CC3)ccc12` [Compound 85], the EC50 was < 12500 nM. In the case of `CCN(CCN(CC)c1ccc2c(NCC(C)(C)C)ncnc2c1)c1ccc2c(NCCC(C)C)ncnc2c1` [Compound 86], the EC50 is reported as < 2500 nM. With `CCCCNc1ncnc2cc(N(CC)CCN(CC)c3ccc4c(NCCC(C)C)ncnc4c3)ccc12` [Compound 87] the EC50 was 2500 nM. With `CCN(CCN(CC)c1ccc2c(NCCC(C)C)ncnc2c1)c1ccc2c(NCCC(C)C)ncnc2c1` [Compound 88] the EC50 was < 12500 nM. Compound `CCCCNc1ncnc2cc(N(C)CCN(C)c3ccc4c(NCCCC)ncnc4c3)ccc12` [Compound 89] has an EC50 of 500 nM. With `CC(C)CCNc1ncnc2cc(N(C)CCN(C)c3ccc4c(NCC(C)(C)C)ncnc4c3)ccc12` [Compound 90] the EC50 was 2500 nM. Work on `CCCCNc1ncnc2cc(N(C)CCN(C)c3ccc4c(NCCC(C)C)ncnc4c3)ccc12` [Compound 91] yielded an EC50 of 2500 nM. `CCCCNc1ncnc2cc(N(CC)CCN(C)c3ccc4c(NCCC(C)C)ncnc4c3)ccc12` [Compound 92] was tested, and the EC50 was 2500 nM. `CCCCNc1ncnc2cc(N(C)CCN(CC)c3ccc4c(NCCCC)ncnc4c3)ccc12` [Compound 93] was tested, and the EC50 was < 2500 nM. In the case of `CCN(CCN(C)c1ccc2c(NCC(C)(C)C)ncnc2c1)c1ccc2c(NCCC(C)C)ncnc2c1` [Compound 94], the EC50 is reported as < 2500 nM. `CCCCNc1ncnc2cc(N(C)CCN(CC)c3ccc4c(NCCC(C)C)ncnc4c3)ccc12` [Compound 95] was tested, and the EC50 was < 2500 nM. For `CCN(CCN(C)c1ccc2c(NCCC(C)C)ncnc2c1)c1ccc2c(NCCC(C)C)ncnc2c1` [Compound 96], the EC50 was < 2500 nM. `CCCCNc1ncnc2cc(N(C)CCCN(C)c3ccc4c(NCCC(C)C)ncnc4c3)ccc12` [Compound 98] was tested, and the EC50 was < 2500 nM. For `CC(C)CCNc1ncnc2cc(N(C)CCCN(C)c3ccc4c(NCCC(C)C)ncnc4c3)ccc12` [Compound 99], the EC50 was < 12500 nM.

Same assay, conditions: Hennes-20 cells, 72 hours compound incubation, alamar Blue; read-out: EC50
With `CC(C)CCNc1ncnc2cc(N3CCN(c4ccc5c(N(C)CC(C)C)ncnc5c4)CC3)ccc12` [Compound 7] the EC50 was < 500 nM. With `CC(C)CCNc1ncnc2cc(N3CCN(c4ccc5c(N(C)CC(C)C)ncnc5c4)CC3)ccc12` [Compound 23] the EC50 was < 2500 nM.
